Measurements taken from ChEMBL document CHEMBL6096646, “Sulfonamide-derivatized galactosides selectively target an unexplored binding site in the galectin-9N-terminal domain” (Bioorg Med Chem, 2024).

Target: Galectin-7 (Homo sapiens, UniProt P47929)
Experiment: Binding affinity to human Galectin-7 assessed as dissociation constant by competitive fluorescence polarization assay

Galectin-7, sequence (P47929 whole entry): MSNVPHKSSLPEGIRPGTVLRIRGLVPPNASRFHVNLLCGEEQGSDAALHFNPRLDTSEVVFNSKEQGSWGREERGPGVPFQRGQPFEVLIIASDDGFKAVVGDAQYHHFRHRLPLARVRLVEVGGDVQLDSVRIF

Kd [µM] | Compound
> 600 | O=S(=O)(Nc1ccccc1-c1cn([C@@H]2[C@@H](O)[C@@H](Sc3ccc(Cl)c(Cl)c3)O[C@H](CO)[C@@H]2O)nn1)c1cc(C(F)(F)F)cc(C(F)(F)F)c1
> 1000 | CO[C@H]1O[C@H](CO)[C@H](O)[C@H](n2cc(-c3ccccc3NS(=O)(=O)c3cc(C(F)(F)F)cc(C(F)(F)F)c3)nn2)[C@H]1O
